Test results from PubChem BioAssay (NCI).
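Compound exposure: 48 hours, 5 concentrations, 96-well plates. Abbreviation: GI50, concentration required for 50% inhibition of growth. Definition used: TGI = concentration required for complete inhibition of growth.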

Tests used:
Assay in all cases: NCI tumour cell line growth inhibition, 48 h; in the data active = GI50 below about 0.43 µM; inactive = the rest
[1] = test system: CAKI-1 renal
[2] = test system: OVCAR-3 ovarian
[3] = test system: K-562 leukemia
[4] = test system: SK-MEL-28 melanoma
[5] = test system: NCI/ADR-RES ovarian
[6] = test system: UACC-257 melanoma
[7] = test system: SK-MEL-2 melanoma
[8] = test system: HOP-92 NSCLC
[9] = test system: HL-60(TB) leukemia
[10] = test system: NCI-H226 lung
[11] = test system: COLO 205 colon
[12] = test system: SF-539 CNS
[13] = test system: SF-268 CNS
[14] = test system: IGROV1 ovarian
[15] = test system: SN12C renal
[16] = test system: HOP-62 NSCLC
[17] = test system: UACC-62 melanoma
[18] = test system: RXF 393 renal
[19] = test system: NCI-H23 lung
[20] = test system: ACHN renal
[21] = test system: BT-549 breast
[22] = test system: SNB-19 CNS
[23] = test system: DU-145 prostate
[24] = test system: MOLT-4 leukemia
[25] = test system: UO-31 renal
[26] = test system: HCT-116 colon
[27] = test system: M14 melanoma
[28] = test system: HCC-2998 colon
[29] = test system: A498 renal
[30] = test system: MDA-MB-231 breast
[31] = test system: PC-3 prostate
[32] = test system: HS 578T breast
[33] = test system: MALME-3M melanoma
[34] = test system: OVCAR-8 ovarian
[35] = test system: SR leukemia
[36] = test system: SW-620 colon
[37] = test system: U251 CNS
[38] = test system: RPMI-8226 leukemia
[39] = test system: NCI-H522 lung
[40] = test system: SK-OV-3 ovarian
[41] = test system: SK-MEL-5 melanoma
[42] = test system: TK-10 renal
[43] = test system: HCT-15 colon
[44] = test system: MDA-MB-435
[45] = test system: KM12 colon
[46] = test system: SNB-75 CNS
[47] = test system: SF-295 CNS
[48] = test system: OVCAR-4 ovarian
[49] = test system: EKVX NSCLC
[50] = test system: 786-0 renal
[51] = test system: HT29 colon
[52] = test system: CCRF-CEM leukemia
[53] = test system: MCF7 breast
[54] = test system: NCI-H460 lung
[55] = test system: T-47D breast
[56] = test system: OVCAR-5 ovarian
[57] = test system: LOX IMVI melanoma
[58] = test system: A549 NSCLC

OCc1ccc(-c2csc(-c3ccc(CO)o3)c2)o1
> 89.6 µM: TGI [49]
4.75 µM: TGI [6]
> 100 µM: TGI [1] | TGI [2] | TGI [3] | TGI [4] | TGI [5] | TGI [7] | TGI [9] | TGI [12] | TGI [13] | TGI [14] | TGI [15] | TGI [16] | TGI [18] | TGI [19] | TGI [20] | TGI [22] | TGI [23] | TGI [25] | TGI [26] | TGI [27] | TGI [28] | TGI [30] | TGI [31] | TGI [32] | TGI [33] | TGI [34] | TGI [35] | TGI [36] | TGI [37] | TGI [38] | TGI [39] | TGI [40] | TGI [43] | TGI [44] | TGI [45] | TGI [46] | TGI [47] | TGI [48] | TGI [50] | TGI [51] | TGI [52] | TGI [54] | TGI [57]
60.1 µM: TGI [24]
1.52 µM: TGI [56]
> 95 µM: TGI [53]
41.5 µM: TGI [41]
active: GI50 [10] 0.165 µM | GI50 [29] 0.018 µM | GI50 [56] 0.199 µM
inactive: GI50 [1] 41.5 µM | GI50 [2] 5.86 µM | GI50 [3] 11.6 µM | GI50 [4] 34.2 µM | GI50 [5] 26.9 µM | GI50 [6] 1.56 µM | GI50 [7] 40.9 µM | GI50 [8] 20.4 µM | GI50 [9] 22.9 µM | GI50 [11] 4.36 µM | GI50 [12] 99.7 µM | GI50 [13] 71.9 µM | GI50 [14] 0.926 µM | GI50 [15] 88.7 µM | GI50 [16] 27.1 µM | GI50 [17] 0.767 µM | GI50 [18] > 79.7 µM | GI50 [19] 34.9 µM | GI50 [20] 43.9 µM | GI50 [21] 21.4 µM | GI50 [22] > 76.4 µM | GI50 [23] 37.7 µM | GI50 [24] 20.7 µM | GI50 [25] 49.7 µM | GI50 [26] 5.71 µM | GI50 [27] 30.6 µM | GI50 [28] 40.4 µM | GI50 [30] 67.2 µM | GI50 [31] 33.4 µM | GI50 [32] 70.6 µM | GI50 [33] 35.5 µM | GI50 [34] 31.5 µM | GI50 [35] 26.8 µM | GI50 [36] 35.9 µM | GI50 [37] 29.7 µM | GI50 [38] 28.3 µM | GI50 [39] 43.6 µM | GI50 [40] 26.1 µM | GI50 [41] 17.5 µM | GI50 [42] 0.64 µM | GI50 [43] 32.8 µM | GI50 [44] 24.1 µM | GI50 [45] 39.1 µM | GI50 [46] > 55.3 µM | GI50 [47] 13.9 µM | GI50 [48] 6.43 µM | GI50 [49] 21.3 µM | GI50 [50] 69.5 µM | GI50 [51] 36.6 µM | GI50 [52] 31.1 µM | GI50 [53] 0.752 µM | GI50 [54] 9.75 µM | GI50 [55] 1.44 µM | GI50 [57] 66.5 µM | GI50 [58] 15.3 µM
> 80.7 µM: TGI [21]
> 56 µM: TGI [11]
0.0719 µM: TGI [29]
40 µM: TGI [55]
> 37.1 µM: TGI [42]
86.4 µM: TGI [8]
33.7 µM: TGI [17]
0.454 µM: TGI [10]
64.9 µM: TGI [58]
